Experiments:
[1] = target: T1, NavSp (Ruegeria pomeroyi, UniProt F7IVA8); test: […]+ uptake into proteoliposomes; assay type: biochemical; details: 3:1 POPE:PI liposomes with 1% PI(4,5)P2, pH 7.5; inhibitor
T1 construct: gene SPO0030; full-length, expressed in E. coli, N-terminal hexa-His tag cleaved with thrombin; 258 amino acids; ~29 kDa monomer; tetramer; reconstituted in liposomes
T1 sequence (F7IVA8 1-258): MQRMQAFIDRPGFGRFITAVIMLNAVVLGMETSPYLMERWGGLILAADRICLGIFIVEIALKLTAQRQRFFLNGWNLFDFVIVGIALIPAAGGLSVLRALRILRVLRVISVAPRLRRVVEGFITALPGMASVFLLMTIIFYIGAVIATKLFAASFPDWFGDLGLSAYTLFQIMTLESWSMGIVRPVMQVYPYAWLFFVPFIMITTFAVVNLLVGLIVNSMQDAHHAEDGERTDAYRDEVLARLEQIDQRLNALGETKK

[2] = target: NavSp, voltage-gated sodium channel from Silicibacter pomeroyi (Silicibacter pomeroyi) (UniProt F7IVA8); test: SEC; Superdex 200 10/300 GL; 10 mM Tris-HCl pH 7.5, 100 mM NaCl, 0.02% NaN3, 0.25% Cymal-5; elution at tetramer mass plus Cymal-5 micelle (~23 kDa)
[3] = target: NavSp pore-only construct (voltage sensor subdomain removed) (Silicibacter pomeroyi); test: SEC; gel filtration of pore-only constructs in decyl maltoside (0.2% DM); elution at tetramer mass plus DM micelle (~30 kDa)
[4] = target: T2, NavMs (Magnetococcus marinus, UniProt A0L5S6); test: […]+ uptake into proteoliposomes; assay type: biochemical; details: 3:1 POPE:guest lipid, pH 7.5, 60 min; activator, greatest activity of guest lipids tested
T2 construct: gene Mmc1_0798; expressed in E. coli, hexa-His tag cleaved with thrombin; tetramer; reconstituted in liposomes
T2 sequence (A0L5S6 1-239 limits assumed): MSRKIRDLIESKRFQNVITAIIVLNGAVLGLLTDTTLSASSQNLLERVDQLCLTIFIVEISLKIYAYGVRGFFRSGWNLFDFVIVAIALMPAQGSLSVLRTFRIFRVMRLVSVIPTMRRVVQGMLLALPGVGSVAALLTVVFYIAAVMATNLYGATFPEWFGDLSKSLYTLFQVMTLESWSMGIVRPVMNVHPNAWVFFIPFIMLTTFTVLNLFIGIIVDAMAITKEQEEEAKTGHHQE

[5] = target: T3, NaChBac (Halalkalibacterium halodurans, UniProt Q9KCR8); test: […]+ uptake into proteoliposomes; assay type: biochemical; details: 3:1 POPE:guest lipid, pH 7.5, 120 min; activator, greatest activity of guest lipids tested, modest variation
T3 construct: gene BH1501; full-length, expressed in E. coli, hexa-His tag cleaved with thrombin; ~31 kDa monomer; tetramer; reconstituted in liposomes
T3 sequence (Q9KCR8 1-274): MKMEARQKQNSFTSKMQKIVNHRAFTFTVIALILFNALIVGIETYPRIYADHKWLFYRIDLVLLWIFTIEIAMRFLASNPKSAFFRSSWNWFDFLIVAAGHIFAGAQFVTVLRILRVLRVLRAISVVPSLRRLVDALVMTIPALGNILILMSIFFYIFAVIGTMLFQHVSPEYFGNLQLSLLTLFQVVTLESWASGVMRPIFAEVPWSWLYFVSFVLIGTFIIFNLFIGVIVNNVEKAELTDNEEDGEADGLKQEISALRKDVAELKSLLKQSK

[6] = target: T4, pore-only NavMs (Magnetococcus marinus, UniProt A0L5S6); test: […]+ uptake into proteoliposomes; assay type: biochemical; details: 3:1 POPE:guest lipid, pH 7.5, 60 min; small but significant activation
T4 construct: gene Mmc1_0798; purified from decyl maltoside; tetramer; reconstituted in liposomes
T4 sequence (A0L5S6 130-237): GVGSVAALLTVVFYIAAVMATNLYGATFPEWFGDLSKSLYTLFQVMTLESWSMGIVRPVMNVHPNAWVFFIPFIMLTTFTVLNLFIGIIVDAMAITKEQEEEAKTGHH

[7] = target: the molecule itself; test: SEC; gel filtration of pore-only constructs in decyl maltoside (0.2% DM); elution at tetramer mass plus DM micelle (~30 kDa)
[8] = target: the molecule itself; test: SEC; Superdex 200 10/300 GL; 10 mM Tris-HCl pH 7.5, 100 mM NaCl, 0.02% NaN3, 0.25% Cymal-5; elution at tetramer mass plus Cymal-5 micelle (~23 kDa)

**Q.** “phosphatidylinositol 4,5-bisphosphate [PI(4,5)P2]” was tested. Which “% inhibition at 1% PI(4,5)P2” value [1] did it give?
**A.** ~ 50%

**Q.** How did the stoichiometry N [2] turn out when “NavSp, voltage-gated sodium channel from Silicibacter pomeroyi (from UniProt F7IVA8 1-258) (natural protein)” was run?
**A.** 4

**Q.** Which stoichiometry N [3] does the source give for “NavSp pore-only construct (voltage sensor subdomain removed) (domain or fragment)” here?
**A.** 4

**Q.** What does the source list for CCCCCCCC/C=C\CCCCCCCC(=O)O[C@H](COC(=O)CCCCCCCCCCCCCCC)COP(=O)(O)OCC(O)CO (some centres unmarked) [PG, 1-palmitoyl 2-oleoyl phospatidyl glycerol]?
**A.** 22Na+ uptake into proteoliposomes [4]: NavMs and NaChBac also showed maximal activity with a negatively-charged lipid; 22Na+ uptake into proteoliposomes [5]: NavMs and NaChBac also showed maximal activity with a negatively-charged lipid

**Q.** For CCCCCCCC/C=C\CCCCCCCC(=O)OC[C@H](COP(=O)(O)OCC(O)COP(=O)(O)OC[C@@H](COC(=O)CCCCCCC/C=C\CCCCCCCC)OC(=O)CCCCCCC/C=C\CCCCCCCC)OC(=O)CCCCCCC/C=C\CCCCCCCC (some centres unmarked) [CL, 18∶1 cardiolipin], which “22Na+ uptake into proteoliposomes” value [6] is on record?
**A.** small but significant increase in activity when CL was present in the liposomes

B1: NavMs pore-only construct (voltage sensor subdomain removed) (domain or fragment, Magnetococcus spirillium (strain MC-1))
chain: GVGSVAALLTVVFYIAAVMATNLYGATFPEWFGDLSKSLYTLFQVMTLESWSMGIVRPVMNVHPNAWVFFIPFIMLTTFTVLNLFIGIIVDAMAITKEQEEEAKTGHH
notes: NavMs of Magnetococcus spirillium (strain MC-1), Uniprot ID printed as AOL5S6 (A0L5S6), pore-only construct without the voltage sensor subdomain; PDB 4F4L is the cited crystal structure of the NavMs pore; also called pore-only NavMs; source: E. coli, purified in decyl maltoside (DM)
**Q.** For B1, which “stoichiometry N” value [7] is on record?
**A.** 4

B2: NaChBac, voltage-gated sodium channel from Bacillus halodurans (natural protein, UniProt Q9KCR8 1-274, looked up)
chain: MKMEARQKQNSFTSKMQKIVNHRAFTFTVIALILFNALIVGIETYPRIYADHKWLFYRIDLVLLWIFTIEIAMRFLASNPKSAFFRSSWNWFDFLIVAAGHIFAGAQFVTVLRILRVLRVLRAISVVPSLRRLVDALVMTIPALGNILILMSIFFYIFAVIGTMLFQHVSPEYFGNLQLSLLTLFQVVTLESWASGVMRPIFAEVPWSWLYFVSFVLIGTFIIFNLFIGVIVNNVEKAELTDNEEDGEADGLKQEISALRKDVAELKSLLKQSK
notes: NaChBac, voltage-gated sodium channel of Bacillus halodurans, Uniprot ID Q9KCR8, full length; pET15b vector was bought; source: E. coli, purified (DDM solubilisation, Ni-NTA in Cymal-5, thrombin, gel filtration)
**Q.** How did the “stoichiometry N” value [8] turn out when B2 was run?
**A.** 4

Source: publication PMC3620320, “Differential Lipid Dependence of the Function of Bacterial Sodium Channels” (PLoS ONE, 2013)
